Data taken from patent US8962677B2, “Methods of restoring cognitive ability using non-peptidic compounds” (Acumen Pharmaceuticals, Inc., priority 2007, dated 2015).

Key:
[1] = cited from earlier work
Aβ1-42 = Aβ1-42 (Homo sapiens, UniProt P05067); test: FRET assay of Aβ1-42 oligomer (ADDL) assembly; format: biochemical; details: for IC50: FRET assay of Example 1, formation of neurotoxic ADDLs
Source text: Fluorescence (or Förster) Resonance Energy Transfer (FRET) is a distance-dependent, non-radiative transfer of energy in which the de-excitation of one fluorophore (donor) is coupled to excitation of another fluorophore (acceptor). FRET occurs if (1) the quantum of energy emitted by a donor fluorophore corresponds to an acceptor fluorophore's excitation energy, (2) the orientations of donor and acceptor transition dipoles are nearly parallel and (3) the donor fluorescent emission spectrum overlaps the acceptor absorption spectrum.
In this assay, Aβ1-42 oligomer formation is monitored by FRET using N-terminal conjugates of fluorescein-Aβ1-42 as both the donor and acceptor fluorophore (fluorescein-fluorescein Ro˜45 Å). […] Inhibition of Aβ1-42 assembly is observed as the absence or attenuation of fluorescein quenching.
FRET and FP assays are performed in 384-well Corning Non-Binding Surface, black, opaque microtiter plates, and the assay buffer consists of 50 mM MOPS-Tris (pH 8.0) with 100 mM MgCl2. The assay volume, containing 0.2 μM FITC-Aβ(1-42) and 0.8 μM Aβ(1-42), is 50 μl and the temperature is 37° C. ADDL assembly is monitored on a Tecan GENios Pro plate reader, exciting at a wavelength of 485 nm and detecting emission at a wavelength of 515 nm. Kinetic traces are collected by recording fluorescence intensity and polarization readings every five minutes over about three to about a six-hour time course. […] Positive control reactions contain all buffer components in the absence of added small molecule or antibody reagents. To test for ADDL assembly inhibition, the non-peptidic compound was incubated with the peptide mixture at six concentrations from about 30 μM decreasing to about 0.05 μM.
Test Compound A appears as compound 7 in Table 1.

[2] = cited from earlier work; remark: listed apart in the source
Aβ1-42 ADDLs = molecular target: T1, Aβ1-42 ADDLs (Homo sapiens, UniProt P05067); test: Alternating Lever Cyclic Ratio (ALCR) rat model; format: in vivo; details: for Approach Errors Mean / Perseveration Errors Mean: base line error rate equalized to 1.00; for error rates versus baseline: given alone
T1 construct: Synthetic Aβ1-42 powder was dissolved in 1,1,1,3,3,3 hexafluorisopropanol (HFIP); host or cells: chemically synthesised peptide
T1 sequence (P05067 672-713 limits assumed): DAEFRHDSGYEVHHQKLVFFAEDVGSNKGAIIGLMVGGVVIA
Experimental: Preparations of Aβ1-42 ADDLs and a potential therapeutic compounds under the Alternating Lever Cyclic Ratio (ALCR) rat model of AD were tested. This highly sensitive model has been able to detect cognitive deficits due to direct injection of cell-derived Aβ oligomers into rat brain. In this study, a direct injection of ADDLs made from synthetic Aβ1-42 and a putative therapeutic compound under the ALCR procedure were tested.
The ALCR test has proven to be much more sensitive than previously published methods for measuring drug effects on cognitive function. In this task, rats must learn a complex sequence of lever-pressing requirements in order to earn food reinforcement in a two-lever experimental chamber. Subjects must alternate between two levers by switching to the other lever after pressing the first lever enough to get food reward. The exact number of presses required for each food reward changes, first increasing from 2 responses per food pellet up to 56 presses per food pellet, then decreasing back to 2 responses per pellet. Intermediate values were based on the quadratic function, x^2−x. One cycle was an entire ascending and descending sequence of these lever press requirements (e.g., 2, 6, 12, 20, 30, 42, 56, 56, 42, 30, 20, 12, 6, and 2 presses per food reward). Six such full cycles were presented during each daily session.
Synthetic Aβ1-42 powder was dissolved in 1,1,1,3,3,3 hexafluorisopropanol (HFIP) to afford a solution of Aβ1-42 in HFIP of about 1 mM and allowed to incubate at ambient temperature for about 1 h. The resulting solution was chilled on ice for about 5-10 min, then aliquoted into eppendorf tubes to provide about 50 μl of solution per tube. The tubes were then placed in a chemical fume hood and allowed to stand overnight to allow the HFIP to evaporate under a slow stream of nitrogen. To removed final traces of HFIP, the tubes were subjected to two SpeedVac cycles of 15 min at room temperature and about 15 to 25 in Hg of vacuum. The resulting films of monomerized Aβ1-42 peptide were stored over desiccant at −80° C. until used.
A tube of monomerized Aβ1-42 peptide was warmed to room temperature and the Aβ1-42 peptide was dissolved in anhydrous DMSO to afford a peptide stock DMSO solution containing about 10 μM to about 100 μM Aβ1-42 peptide in DMSO.
2 μl of a 20 mM stock solution of test compound in anhydrous DMSO is added to 998 μl of neural basal media (phenol red free, Gibco 12348-017) to give a compound neural basal media solution containing 40 μM of test compound in neural basal media.
For the Aβ1-42 peptide only treatment, peptide stock DMSO solution is added to 37° C. neural basal to obtain the requisite Aβ1-42 peptide monomer concentration, provided that the maximum concentration of DMSO is 1% or less, and the tube is vortexed for 30 to 60 seconds, spun down briefly in a microfuge and incubated at 37° C. for 15 min prior to the start of injections.
For the Aβ1-42 peptide plus test compound treatment, peptide stock DMSO solution is added to 37° C. compound neural basal media solution to obtain the requisite Aβ1-42 peptide monomer concentration, provided that the maximum concentration of DMSO is 1% or less, and the tube is vortexed for 30 to 36 seconds, spun down briefly in a microfuge and incubated at 37° C. for 15 min prior to the start of injections.
For control injections, compound neural basal media solution is incubated at 37° C. for 15 min prior to the start of injections.
Rats: Rats were trained under ALCR until their error rates were stable. Once the rats were placed upon the final ALCR procedure, training sessions were conducted 7 days each week until the end of the study.
Surgery: All rats received a single 28 ga cannula, which was permanently affixed to the skull, and aimed at the lateral ventricle. Half the rats received cannula in the right ventricle and half received cannula in the left ventricle. Rats were allowed 5 days to recover from surgery before training resumed. […]

[3] = compound combined with Aβ1-42 ADDLs
[4] = injectate alone, 20 μl via ventricular cannula, tested about 3 hours after injection

Chain of Aβ1-42 (P05067 672-713 limits assumed): as above

Molecule: NCCCS(=O)(=O)O [Alzhemed, 3-amino-1-propanesulfonic acid]
- cognitive decline ([1]; 20 month open-label extension of Phase II trial, patients with mild AD): slowed cognitive decline in some patients
- efficacy ([1]; blinded phase of the Phase II study): no efficacy was observed
- blocking of Aβ1-42 monomer assembly into Aβ oligomers (Aβ1-42; standard FRET assay conditions of Example 1, FIG. 2): inability of the compound Alzhemed to inhibit Aβ1-42 monomer assembly into Aβ oligomers

Molecule: Oc1c(I)cc(Cl)c2cccnc12 [Clioquinol]
- patients' cognitive ability ([2]; compared to untreated patients): stabilize the patients' cognitive ability
- Aβ1-42 levels in plasma ([2]; patients' plasma): lower Aβ1-42 levels

Molecule: Cn1nccc1C(=O)C/C(=N/NC(=O)c1ccccc1O)C(F)(F)F [Compound 1, 2-Hydroxy-benzoic acid [3-oxo-3-(1-methyl-1H-pyrazol-5-yl)-1-trifluoromethyl-prop-(Z)-ylidene]-hydrazide]
- IC50 (Aβ1-42): 17.7 µM

Molecule: CCOC(=O)c1c(NC(=O)C(=O)N/N=C/c2ccccc2O)sc2c1CCC(C)C2 (centres unmarked) [Compound 7, 2-{[1-(2-Hydroxyphenyl)-meth-(E)-ylidene-hydrazinooxalyl]-amino}-6-methyl-4,5,6,7-tetrahydro-benzo[b]thiophene-3-carboxylic acid ethyl ester]
- inhibition of Aβ1-42 oligomer assembly (Aβ1-42; 1 mM Aβ1-42 total monomer, 100 mM MgCl2, compound 0.05 to 3 mM (so in the source), FIG. 1): dose dependent inhibition of Aβ1-42 oligomer assembly

Molecule: COc1ccc(NC(=O)C(=O)N2N=C(CCC(C)C)CC2(O)C(F)(F)F)cc1 (centres unmarked) [Compound 21, 2-(5-hydroxy-3-isopentyl-5-(trifluoromethyl)-4,5-dihydro-1H-pyrazol-1-yl)-N-(4-methoxyphenyl)-2-oxoacetamide]
- IC50 (Aβ1-42): 6.4 µM

Molecule: O=C(N/N=C/c1c(O)ccc2ccccc12)c1ccccc1O [Compound 24, (E)-2-hydroxy-N′-((2-hydroxynaphthalen-1-yl)methylene)benzohydrazide]
- effect on ADDL-induced increase in Perseveration Errors (Aβ1-42 ADDLs; combined with the requisite concentration of Aβ1-42 ADDLs): eliminated the increase in Perseveration Errors
- Approach Errors Mean (Aβ1-42 ADDLs; [3]): 1.00
- Perseveration Errors Mean (Aβ1-42 ADDLs; [3]): 0.92
- error rates versus baseline (Aβ1-42 ADDLs): did not increase error rates
- Approach Errors Mean (Aβ1-42 ADDLs; [4]): 0.96
- Perseveration Errors Mean (Aβ1-42 ADDLs; [4]): 0.95

Molecule: Aβ1-42 ADDLs: ADDLs made from synthetic Aβ1-42; soluble, oligomeric, globular, non-fibrillar, neurotoxic Aβ1-42 peptides [reference compound]
- error rates versus baseline (Aβ1-42 ADDLs): significantly increased Perseveration Error rate
- Approach Errors Mean (Aβ1-42 ADDLs; [4]): 1.02
- Perseveration Errors Mean (Aβ1-42 ADDLs; [4]): 1.33
